Among the data in PubChem BioAssay (NCI) are GI50 and TGI values, retold here.

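Cultured in 96-well plates, cells were exposed to test compound for 48 hours across five concentrations. At the GI50, growth is halved. At the TGI there is no net growth.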

Test systems include A549 NSCLC; MALME-3M melanoma; MDA-MB-435; SF-268 CNS; COLO 205 colon; A498 renal; RPMI-8226 leukemia; NCI-H226 lung; CCRF-CEM leukemia; IGROV1 ovarian.
Assay in all cases: NCI tumour cell line growth inhibition, 48 h

On to `CCCNc1nc(-c2ccc(OC)cc2)nc2ccccc12`, for which the GI50 with A549 NSCLC is 11.1 µM; in the test on MALME-3M melanoma, 15.1 µM; with MDA-MB-435, 14.5 µM; with SF-268 CNS, 16.3 µM; with COLO 205 colon it was 19.9 µM; in the test with A498 renal it was 11.9 µM. In addition, the GI50 with RPMI-8226 leukemia is 3.96 µM; in the test with NCI-H226 lung, 16.1 µM; with CCRF-CEM leukemia it was 11.1 µM; in the test on IGROV1 ovarian, 24 µM. The TGI in the test on A549 NSCLC was 49.6 µM; in the test with MALME-3M melanoma, 29.3 µM; in the test with MDA-MB-435, 29.2 µM; in the test on SF-268 CNS it was 38.8 µM; in the test with COLO 205 colon it was more than 100 µM; in the test with A498 renal, 25 µM. Moreover, the TGI in the test on RPMI-8226 leukemia is 22.6 µM; in the test with NCI-H226 lung, 41.9 µM; in the test with CCRF-CEM leukemia, 68.3 µM; with IGROV1 ovarian, more than 100 µM.

`O=C1NC(=NCc2ccccn2)S/C1=C\c1ccc2ncccc2c1`: the GI50 in the test with A549 NSCLC is 8.41 µM; in the test with MALME-3M melanoma, more than 13.1 µM; with MDA-MB-435, 7.64 µM; in the test on SF-268 CNS, 8.5 µM; in the test on COLO 205 colon, 7.68 µM; in the test on A498 renal it was 3.95 µM. The GI50 with RPMI-8226 leukemia was more than 12.6 µM; in the test with NCI-H226 lung, 15 µM; in the test with CCRF-CEM leukemia, 10.7 µM; in the test on IGROV1 ovarian, 17.8 µM. Also, the TGI in the test on A549 NSCLC was more than 25 µM; with MALME-3M melanoma it was more than 23.3 µM; in the test with MDA-MB-435, more than 21.9 µM; in the test on SF-268 CNS, more than 25 µM; in the test on COLO 205 colon, more than 25 µM; in the test on A498 renal, more than 18.8 µM. Moreover, the TGI with RPMI-8226 leukemia, in the test with NCI-H226 lung, in the test on CCRF-CEM leukemia and with IGROV1 ovarian was more than 25 µM in each case.

Turning to `O=C(/C=N/O)c1c(-c2ccccc2)[nH]c(-c2ccccc2)c1-c1ccccc1`, the TGI turned out to be 45.2 µM with A549 NSCLC; 32.9 µM with MALME-3M melanoma; 28.3 µM in the test with MDA-MB-435; 49.7 µM in the test on SF-268 CNS; 36.6 µM in the test with COLO 205 colon; 62.4 µM in the test on A498 renal. Also, the TGI was 31.4 µM in the test on RPMI-8226 leukemia, 83.4 µM in the test with NCI-H226 lung, more than 100 µM in the test on CCRF-CEM leukemia and 28.4 µM in the test with IGROV1 ovarian.

Regarding `O=[N+]([O-])c1ccc2[nH]cc(-c3c4ccccc4cc4[nH]c5ccc([N+](=O)[O-])cc5c34)c2c1`, the GI50 is 2.07 µM with A549 NSCLC; 2.32 µM in the test on MALME-3M melanoma; 1.8 µM in the test with MDA-MB-435; 2.66 µM in the test on SF-268 CNS; 2.46 µM with COLO 205 colon; 1.53 µM with A498 renal. The GI50 in the test with RPMI-8226 leukemia was 2.27 µM; in the test with NCI-H226 lung, 2.2 µM; in the test on CCRF-CEM leukemia, 2.38 µM; in the test with IGROV1 ovarian it was 2.15 µM. Also, the TGI with A549 NSCLC came to 4.8 µM; in the test with MALME-3M melanoma, 6.77 µM; with MDA-MB-435, 4.89 µM; with SF-268 CNS, 9.57 µM; with COLO 205 colon it was 7 µM; with A498 renal, 4.25 µM. For the same molecule, the TGI in the test with RPMI-8226 leukemia worked out at 6.32 µM; with NCI-H226 lung, 5.8 µM; in the test with CCRF-CEM leukemia, 6.71 µM; in the test on IGROV1 ovarian, 4.68 µM.

Consider `C[n+]1c2ccccc2c(NC2CCNCC2)c2[nH]c3ccccc3c21`, for which the GI50 in the test on A549 NSCLC is 0.0812 µM; with MALME-3M melanoma, 1.35 µM; in the test with MDA-MB-435, 2.33 µM; in the test with SF-268 CNS, 0.0378 µM; in the test with COLO 205 colon, 0.264 µM; in the test on A498 renal, 1.35 µM. The GI50 in the test on RPMI-8226 leukemia was 0.164 µM; in the test on NCI-H226 lung, 0.384 µM; in the test on CCRF-CEM leukemia, 0.48 µM; in the test with IGROV1 ovarian, 0.363 µM. Further, the TGI in the test with A549 NSCLC came out at 2.73 µM; in the test on MALME-3M melanoma, 3.55 µM; in the test with MDA-MB-435, 8.42 µM; in the test on SF-268 CNS it was 0.773 µM; in the test on COLO 205 colon it was 2 µM; in the test on A498 renal, 5.05 µM. Also, the TGI with RPMI-8226 leukemia was determined as 1.17 µM; in the test on NCI-H226 lung, 2.52 µM; in the test with CCRF-CEM leukemia, 3.13 µM; in the test with IGROV1 ovarian, 5.05 µM.

Regarding `O=C(Nc1ccccc1Cl)c1ccc(NC2=C(Cl)C(=O)N(Cc3ccccc3)C2=O)cc1`, the GI50 in the test on A549 NSCLC was 60.4 µM; in the test on MALME-3M melanoma it was 86.1 µM; in the test with MDA-MB-435, 48.4 µM; in the test with SF-268 CNS it was 23.3 µM; in the test with COLO 205 colon, 51.3 µM; with A498 renal, more than 100 µM. Further, the GI50 is more than 100 µM in the test on RPMI-8226 leukemia, 32.5 µM in the test with NCI-H226 lung, more than 100 µM with CCRF-CEM leukemia and 46.4 µM in the test with IGROV1 ovarian. Besides, the TGI was more than 100 µM in the test with A549 NSCLC; more than 100 µM in the test with MALME-3M melanoma; more than 100 µM in the test with MDA-MB-435; 55.1 µM with SF-268 CNS; more than 100 µM in the test on COLO 205 colon; more than 100 µM in the test on A498 renal. Besides, the TGI is more than 100 µM with RPMI-8226 leukemia, 92.3 µM in the test with NCI-H226 lung, more than 100 µM in the test on CCRF-CEM leukemia and more than 100 µM in the test on IGROV1 ovarian.

Take `CC1=C(C)C(=O)C(C(C)C2=C(C)C(=O)C(C)=C(C)C2=O)=C(C)C1=O`: the GI50 is 51 µM with A549 NSCLC; 44.1 µM in the test with MALME-3M melanoma; 39.4 µM in the test on MDA-MB-435; 18.7 µM in the test with SF-268 CNS; 32.6 µM in the test with COLO 205 colon; 25.2 µM in the test with A498 renal. The GI50 in the test with RPMI-8226 leukemia is 7.09 µM; in the test on NCI-H226 lung, 58.3 µM; in the test on CCRF-CEM leukemia, 20.1 µM; in the test on IGROV1 ovarian, 48.9 µM. Moreover, the TGI in the test on A549 NSCLC is more than 100 µM; in the test with MALME-3M melanoma, more than 100 µM; in the test on MDA-MB-435, more than 100 µM; with SF-268 CNS it was 49.7 µM; in the test on COLO 205 colon it was more than 100 µM; in the test on A498 renal, more than 100 µM. For the same molecule, the TGI is 31.6 µM in the test with RPMI-8226 leukemia, more than 100 µM in the test on NCI-H226 lung, 50.7 µM with CCRF-CEM leukemia and more than 100 µM with IGROV1 ovarian.

As for `Cn1c(=O)c(Cc2ccc(F)cc2F)cc2cnc(NC3CCOCC3)nc21`, the GI50 in the test with A549 NSCLC was more than 25 µM; with MALME-3M melanoma, more than 25 µM; in the test on MDA-MB-435, more than 25 µM; in the test on SF-268 CNS, more than 25 µM; in the test with COLO 205 colon, more than 25 µM; with A498 renal, 12.3 µM. For the same molecule, the GI50 in the test on RPMI-8226 leukemia was more than 23.6 µM; with NCI-H226 lung, more than 21.1 µM; with CCRF-CEM leukemia, more than 25 µM; with IGROV1 ovarian, more than 25 µM. Further, the TGI in the test with A549 NSCLC, in the test with MALME-3M melanoma, in the test with MDA-MB-435, with SF-268 CNS, in the test on COLO 205 colon and with A498 renal was more than 25 µM each time. For the same molecule, the TGI in the test with RPMI-8226 leukemia, in the test on NCI-H226 lung, in the test with CCRF-CEM leukemia and in the test on IGROV1 ovarian was more than 25 µM throughout.
